Converted amounts (≈) assume the structure as drawn.
How the values were obtained:
[1] = system: SARS-CoV 3CL protease (3CLpro); conditions: cited from earlier work
[2] = system: SARS-CoV; conditions: Vero E6 cells; cited from earlier work
[3] = system: human coronavirus 229E (HCoV 229E); assay: Anti-HCoV 229E assay: reduction in viral titer; assay type: cell-based, human coronavirus 229E in MRC-5 human lung fibroblast; conditions: MRC-5 cells, compound at 3 μg/mL, 72 h, Figure 3 (n = 1)
[4] = system: MRC-5 cells; assay: Cell morphology in photonic microscope observation; assay type: cell-based, human; conditions: antiviral assay
[5] = system: human coronavirus 229E (HCoV 229E); assay: Anti-HCoV 229E assay: reduction in virus-induced cytopathogenic effect; assay type: cell-based, human coronavirus 229E in MRC-5 human lung fibroblast; conditions: MRC-5 cells, compound at 3 μg/mL (16: 6.7 μM), MOIs 0.01–0.001, 72 h, Figure 4 (n = 3)
[6] = system: SARS-CoV-2; set-up: method as in earlier work; conditions: cited from earlier work

In the case of CC(C)c1cc2c(cc1O)[C@@]1(C)CCCC(C)(C)[C@@H]1CC2 [Compound 1, (+)-ferruginol], the “inhibition for SARS-CoV 3CL protease” value ([1]; below 100 μM) is listed as “did not show inhibition”, the IC50 [1] is listed as 49600 nM and the EC50 [2] is listed as 1390 nM.
For CC(=O)Oc1cc2c(cc1C(C)C)C=C[C@H]1C(C)(C)[C@@H](OC(C)=O)CC[C@]21C [Compound 2, 3β,12-diacetoxyabieta-6,8,11,13-tetraene, reference compound], the EC50 [2] is listed as 1570 nM.
For CC(C)c1cc2c(cc1O)[C@@]1(C)CCC[C@@](C)(CN3C(=O)c4ccccc4C3=O)[C@@H]1CC2 [Compound 3, 18-(phthalimid-2-yl) ferruginol], the “reduction in the viral titer” value [3] was “important reductions in the viral titer” and the “modification of the cell morphology” value [4] was “induced modification of the cell morphology”.
For C=C(CO)c1ccc2c(c1)CC[C@H]1[C@@](C)(C(=O)O)CCC[C@]21C [Compound 7, jiadifenoic acid C, reference compound], the “reduction in the viral-induced cytopathogenic effect (CPE)” value [5] was “no activity”.
With CC(C)c1cc2c(cc1O)[C@@]1(C)CCC[C@@](C)(CO)[C@@H]1CC2 [Compound 12] the “reduction in the viral titer” value [3] was about 0.5 log.
With CC(C)c1cc2c(cc1O)[C@@]1(C)CCC[C@@](C)(CN)[C@@H]1CC2 [Compound 14, 12-hydroxydehydroabietylamine] the “reduction in the viral-induced cytopathogenic effect (CPE)” value [5] was “reduce the cytopathogenic effect”.
With CC(C)c1cc2c(cc1O)[C@@]1(C)CCC[C@@](C)(CN3C(=O)c4cccc(F)c4C3=O)[C@@H]1CC2 [Compound 15, 12-Hydroxy-N,N-(3-fluorophthaloyl)dehydroabietylamine] the “modification of the cell morphology” value [4] was “induced modification of the cell morphology”.
For CC(C)c1cc2c(cc1O)[C@@]1(C)CCC[C@@](C)(CN3C(=O)c4ccc(F)cc4C3=O)[C@@H]1CC2 [Compound 16, 12-Hydroxy-N,N-(4-fluorophthaloyl)dehydroabietylamine], the “reduction in the viral titer” value [3] was “approximately 2 log”.
For Cc1coc2c1C(=O)C(=O)c1c-2ccc2c1CCCC2(C)C [tanshinone IIA], the “IC50 (anti-SARS-CoV-2 activity)” value [6] is listed as 4.08 µg/mL (≈ 13.9 µM).

Reference: publication PMC10301393 (Viruses, 2023)
